Data from patent US11571413B2, “Nicotinamide riboside treatments of domesticated meat animals” (Kansas State University Research Foundation, priority 2017, dated 2023).
Marks after values point to notes of the source that are not given here.

Experiments:
fertilized broiler eggs = test: In ovo NR injection at 11 days of incubation: chick weight and Pectoralis major measurements (Example 1); type: in vivo, chicken
Method: At 11-days of incubation, 60 fertilized broiler eggs were randomly assigned to completely randomized design with a 2×2 factorial arrangement. Factor 1 comprised treatment, with eggs injected with 100 μl of 0.9% sterile saline solution (NRNeg) or 250 mM NR in sterile saline (NRPos). Factor 2 comprised injection location, with treatments injected into the yolk or albumen. Eggs were incubated at 37±3° C. and a relative humidity of 40±2% for 7 days. Humidity was increased to 60±2% at the same temperature for the final 3 days of incubation. Twenty-four hours after hatching, chicks were euthanized by exposure to CO2 and decapitation. Measurements including chick weight and left Pectoralis major weight, length, and depth were taken for analysis.

[1] = test system: Fertilized broiler eggs (Cobb 500); test: NR concentration on avian embryonic myogenesis, d 19 embryo morphometrics (Example II); type: in vivo, chicken; conditions: 100 μl into yolk d 10, d 19 embryos
Method: Fertilized broiler eggs (n=60; Cobb 500) were randomly assigned to 1 of 4 treatments: 0.0, 250, 500, or 1,000 mM NR in sterile saline. At day 10 of incubation, 100 μl of treatment solution was injected into the egg yolk. Eggs were incubated at 37±3° C. and a relative humidity of 40±2%. At day 19 of incubation, embryos were euthanized by prolonged exposure to CO2 gas and decapitation. Measurements including: embryo weight; crown-rump length; chest circumference (CC); and left Pectoralis major (PM) weight, length, width, and depth were collected.

growing pigs = test: Longissimus lumborum NAD+ content (Example III); type: in vivo, pig
Method: Nine growing pigs were blocked by bodyweight (BW) and placed in metabolism crates. After a 3-day acclimation period, pigs within each BW block were randomly assigned to a treatment (n=3 pigs/treatment). Treatments comprised pigs supplemented 0, 15, or 30 mg/kg BW NR for 7 days. Pigs were allowed ad libitum access to a standard growing diet and water. Treatments were administered daily at 8 a.m. by mixing NR in 20 mL of Karo® dark syrup and orally drenching the pigs. On day 0 and 3 of the trial, muscle biopsies of the LL were taken for NAD+ analysis using standard procedures. At day 7, pigs were transported to the Kansas State University Meats Laboratory and euthanized by a captive penetrating bolt to the brain, followed by exsanguination. Following harvest procedures, 3 g of the LL were collected for NAD+ analysis. Twenty-four hours after harvest, the whole LL not sampled at harvest was removed from the carcass and aged 10 days. After aging, the LL was cut into 6 chops for retail color stability analysis, including 6-day surface oxy- and metmyoglobin percentage, 6-day objective and subjective color panel evaluation, and day 4 and 6 metmyoglobin reducing ability (MRA).

finished market barrows = test: Semitendinosus muscle NAD+ content by HPLC (Example V); type: in vivo, pig; conditions: 30 mg/kg BW oral daily, 10 days
Method: Fourteen days prior to harvest, 20 finished market barrows (initial body weight 268 pounds) were randomly assigned to 1 of 2 treatments: 0 or 30 mg/kg body weight of nicotinamide riboside, both orally administered daily in 20 ml of Karo® Syrup. Ten days prior to harvest, pigs were restrained via a snare and treatments were administered. On day 7, barrows were subjected to a performance test where they were walked around a track at 0.88 m/s until subjective fatigue was achieved. Three days following the performance test, barrows were harvested and a portion of the semitendinosus muscle was collected within 45 minutes. These samples were analyzed for NAD+ content via HPLC methodology.

[2] = test system: Fertilized Cobb 500 broiler eggs; test: Pectoralis major NAD+ quantification, NAD/NADH assay kit (second Example VI); type: in vivo, chicken; conditions: hatched chicks
Method: Nicotinamide adenine dinucleotide content of the right PMM was quantified using a commercial NAD/NADH assay kit (Abnova, Taipei, Taiwan). Twenty-milligram of PMM tissue was homogenized in a propriety NAD extraction buffer, heated at 60° C. for 5 min, and propriety assay and NADH buffers were added. Samples were centrifuged at 14,000 rpm for 5 min and the supernatant was used for analysis. Standards, samples, and working reagent [propriety assay buffer, enzymes, lactate, and 3-(4,5-dimethylthiazol-2-yl)-2,5-diphenyltetrazolium bromide] were loaded onto 96-well plates and absorbance was read at 565 nm at 0 and 15 min. The change in absorbance was used to calculate amount of NAD+.

[3] = 100 μl 250 mM NR into yolk at 11 d, chicks 24 h after hatching

## NC(=O)c1ccc[n+]([C@@H]2O[C@H](CO)[C@@H](O)[C@H]2O)c1 [Nicotinamide riboside, nicotinamide riboside]
Fertilized broiler eggs; 100 μl 250 mM NR at 11 d, treatment main effect (yolk and albumen)
  Pectoralis major depth vs NRNeg: thicker muscles
Fertilized broiler eggs; 100 μl 250 mM NR into albumen at 11 d, chicks 24 h after hatching
  Chick weight and Pectoralis major weight and length vs NRNeg: no differences
Fertilized broiler eggs; [3]
  Chick weight vs NRNeg: tended to weigh more
  Pectoralis major length vs NRNeg: longer
  Pectoralis major weight vs NRNeg: weighed more
[1]; 250 mM NR
  Body weight: 46.42 g
  Chest circumference: 6.0^a,b cm
  Crown to rump length: 83.69^a mm
  Head circumference: 5.3^a cm
  Head length: 17.70 mm
  Head width: 15.42 mm
  Organ weight, heart: 0.23 g
  Organ weight, liver: 0.74 g
  Pectoralis major length: 16.73^b mm
  Pectoralis major maximum thickness: 2.56^b mm
  Pectoralis major weight: 0.13^a,b g
  Pectoralis major width: 4.90^a,b mm
[1]; 500 mM NR
  Body weight: 46.25 g
  Chest circumference: 6.3^b cm
  Crown to rump length: 85.14^a mm
  Head circumference: 5.6^b cm
  Head length: 17.60 mm
  Head width: 15.49 mm
  Organ weight, heart: 0.23 g
  Organ weight, liver: 0.72 g
  Pectoralis major length: 17.51^b mm
  Pectoralis major maximum thickness: 2.36^a,b mm
  Pectoralis major weight: 0.16^b g
  Pectoralis major width: 5.32^b mm
[1]; 1,000 mM NR
  Body weight: 45.97 g
  Chest circumference: 6.6^b cm
  Crown to rump length: 88.20^b mm
  Head circumference: 5.7^b cm
  Head length: 17.98 mm
  Head width: 15.69 mm
  Organ weight, heart: 0.24 g
  Organ weight, liver: 0.67 g
  Pectoralis major length: 17.44^b mm
  Pectoralis major maximum thickness: 2.64^b mm
  Pectoralis major weight: 0.15^b g
  Pectoralis major width: 5.61^b mm
Growing pigs; 15 mg/kg
  Day 3 NAD+ change, percent change: 28.55^b,x Percent
  Day 3 NAD+ change, total: 2.10^b pMol/g tissue
  Day 7 NAD+ change, percent change: 35.29^b,x Percent
  Day 7 NAD+ change, total: 2.72^b pMol/g tissue
Growing pigs; 15 mg/kg group, Day 0 (before supplementation)
  NAD+: 7.70 pMol/g tissue
Growing pigs; 15 mg/kg, Day 7
  NAD+: 10.42 pMol/g tissue
Growing pigs; 15 mg/kg, middle column group (Day 3, head not given)
  NAD+: 9.80 pMol/g tissue
Growing pigs; 30 mg/kg
  Day 3 NAD+ change, percent change: 6.43^a,b,y Percent
  Day 3 NAD+ change, total: 0.71^a,b,y pMol/g tissue
  Day 7 NAD+ change, percent change: 10.92^a,b,y Percent
  Day 7 NAD+ change, total: 0.93^a,b,y pMol/g tissue
Growing pigs; 30 mg/kg group, Day 0 (before supplementation)
  NAD+: 8.60 pMol/g tissue
Growing pigs; 30 mg/kg, Day 7
  NAD+: 9.53 pMol/g tissue
Growing pigs; 30 mg/kg, middle column group (Day 3, head not given)
  NAD+: 9.31 pMol/g tissue
Finished market barrows
  Increase of NAD+ in the semitendinosus muscle (tendency, P=0.09): 62%
[2]; 1,000 mM NR
  NAD+ content of PMM vs the other 3 treatment groups: more NAD^+
[2]; 250 and 500 mM NR
  NAD+ content of PMM among 0, 250 and 500 mM groups: did not differ
